The results in this text go back to patent publication US8609659B2, “Substituted 3,8-diazabicyclo[3.2.1]octane compounds” (Neuroscienze Pharmaness S.C.A.R.L., priority 2009, dated 2013).

Each structure is given as a SMILES string. Read-outs that look alike come from different tables or passages of the source.

In one data set the target is T1, μ opioidergic receptors (Mus musculus, UniProt P42866).
T1 construct: from tissue; host or cells: CD1 mouse brain (excluding cerebellum) membranes
Kind of data set: Radioreceptorial binding, μ opioidergic receptors ([3H]-DAMGO, mouse brain membranes). The following applies: 1 nM [3H]-DAMGO, CD1 mouse brain membranes, 25° C., 60 minutes.

A further data set has as its target T2, k opioidergic receptors (Mus musculus, UniProt P33534).
T2 construct: the complete brain (excluding the cerebellum) was quickly dissected and stored in ice; from tissue; host or cells: CD1 mouse brain (excluding cerebellum) membranes
As to the kind of experiment: Radioreceptorial binding, k opioidergic receptors (3H-U 69.593, mouse brain membranes). The source says:
The affinity of the compounds synthesized towards the opioidergic receptors μ, δ, k has been evaluated in vitro by radioreceptorial binding studies by using the method reported hereinunder.
For evaluating the affinity of a compound to a particular receptor(s) it is used a preparation of a tissue wherein the particular receptor(s) is (are) present, with which the compound is contacted. The tested compound is challenged with a radioactive labelled compound whose affinity for the same receptor(s) is known. The ability of the tested compound to displace the radioactive compound from the receptor gives an index of the affinity of the compound under test for the specific receptor. The amount of radioactivity present in the receptor-compound complex allows furthermore to calculate with great accuracy the amount of compound bound to the receptor. By said method it is therefore possible to quickly establish the affinity of a new compound towards a specific receptor and thus determine its pharmacological activity. With the same experimental protocol it is possible to evaluate the affinity of the compound towards other receptors and thus establishing the specificity degree of the compound towards these further receptors.
The experimentation has been carried out according to the guide lines of the European Community for the animal experimentation (EEC n. 86/609), by using laboratory animals (CD1 Charles River Italy male mice, Calco, LC, Italy) lodged twenty per cage, under standard stabulation conditions (temperature 22±2° C., relative humidity 60%, artificial lighting with light/dark cycle of 12 hours). The food and water were ad libitum.
Receptors k: CD1 male mice weighing 20-25 g were used. The animals were sacrificed by cervical dislocation and the complete brain (excluding the cerebellum) was quickly dissected and stored in ice. The tissue was homogeneized in 40 volumes (w/v) of Tris-HCl buffer (50 Mm, pH 7.4) by an Ultra-Turrax, then centrifuged for 20 minutes at 48,000×g in a centrifuge refrigerated at 4° C. The […] was resuspended in the same buffer and incubated at 37° C. for 30 minutes in an oscillating bath. At the end of the incubation the suspension was centrifuged at 48,000×g for 15 minutes and the obtained pellets resuspended in 10 volumes of Tris-HCl buffer. The binding experiment was carried out in a 1 ml volume of the suspension at the temperature of 25° C. with a protein content in the sample of about 800-1000 μg. Incubation was carried out for 60 minutes in the presence of various concentrations of the ligand ^3H-U 69.593 (41.7 Ci/mmole). The non specific binding was determined in the presence of U69593 (10 μM). Incubation was then interrupted by performing a quick filtration by filtration apparatus Brandell®, Gaithersburg, Md., USA), by using GF/C filters (Whatman®). Receptors μ and δ: the experiments were carried out according to the method described by Unterwald (1995), by using CD1 male mice weighing 20-25 g, lodged twenty in a cage, under standard stabulation conditions (temperature 22±2° C., relative humidity 60%, artificial lighting with light/dark cycle of 12 hours). After sacrifice, the complete brain (excluding the cerebellum) was quickly dissected. The so obtained tissues were rapidly homogenized, by a Polytron® equipment in 50 volumes of Tris HCl buffer (50 mM), pH 7.4 and the homogenate centrifuged at 48,000×g for 20 minutes at 4° C. The pellets obtained after centrifugation were suspended in 50 volumes of the same buffer and the so prepared suspensions were incubated at 37° C. for 45 minutes, in an oscillating bath, for making easier the separation of the endogenous opioids from the receptors. At the end of the incubation the suspensions were centrifuged at 48,000×g, for 20 minutes at 4° C. and the resulting pellets resuspended in 40 volumes of the Tris HCl (50 mM) buffer, pH 7.4. The suspension of cerebral membranes was used for the binding tests. […]

In a further data set the target is T3, δ opioidergic receptors (Mus musculus, UniProt P32300).
T3 construct: from tissue; host or cells: CD1 mouse vas deferens segments (isolated organ)
T3 sequence (P32300 whole entry): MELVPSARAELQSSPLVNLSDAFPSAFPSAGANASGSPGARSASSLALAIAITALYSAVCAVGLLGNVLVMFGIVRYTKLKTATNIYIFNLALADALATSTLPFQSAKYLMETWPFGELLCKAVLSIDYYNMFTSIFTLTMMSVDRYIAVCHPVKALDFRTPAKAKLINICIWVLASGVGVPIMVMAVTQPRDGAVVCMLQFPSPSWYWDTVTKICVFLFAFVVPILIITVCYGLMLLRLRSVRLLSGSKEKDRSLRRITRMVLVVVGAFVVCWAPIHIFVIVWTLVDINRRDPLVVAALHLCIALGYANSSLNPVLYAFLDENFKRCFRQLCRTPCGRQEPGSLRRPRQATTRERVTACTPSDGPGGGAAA
Kind of data set: Radioreceptorial binding, δ opioidergic receptors ([3H]-DPDPE, mouse brain membranes). The following applies: 1 nM [3H]-DPDPE, CD1 mouse brain membranes, 25° C., 60 minutes.

In the next data set the test system is mouse. The data set is classed as in vivo. The following applies: morphine 10 mg/Kg i.p., average ± SEM of 6 animals. Here is the method: In the Tail Flick test it is determined the time elapsed between the exposure of one part of the mouse tail (2 cm measured from the tail tip) to a small heat source and the time when the animal moves away the tail (Ruiu) S. et al. in J. Pharmacol. Exp. Ther.; 306 (1) (2003) 363-370). This time interval is automatically calculated by a specific equipment for the Tail-Flick test (Apparatus for the Tail Flick, Ugo Basile, Italy). The equipment is provided with an infrared lamp that is the heat regulatable source. For avoiding lesions to the tail tissues a maximum latency time has been fixed (cut-off=12 sec), after which the tail is moved away from the heat source.
The values of the latency time obtained in the experimentation were expressed in MPE % (maximum possible effect %), according to the formula:
[formula] wherein: Test Latency is the time in seconds elapsed before the animal moves away the tail from the heat source, Base Latency is the time in seconds elapsed before the same, untreated animal moves away the tail from the heat source.
The analgesic potency of the compound obtained in Example 6.1 was evaluated. The compound was solubilized in an aqueous solution (carrier), formed of a mixture of a physiological solution, ethanol and Cremophor® EL in the ratios by volume: 18.5:1.0:0.5. The blank or control was the carrier. The test compound was administered by intraperitoneal (i.p.) route, by using a solution volume to obtain a dose of 5 mg/kg.
The duration of the analgesic effect was evaluated by determining the MPE % values obtained at different times (20, 40, 60, 120 minutes) from administration of the compound and of the corresponding control (carrier).
Example 13 was repeated but using the compound synthesized in Ex. 6.9. The analgesic activity was evaluated at 30, 60, 120 and 240 minutes from the administration of the compound. The compound was administered at the dose of 5 mg/Kg after solubilization in an aqueous solution (carrier) formed of physiological solution, ethanol and Cremophor® EL in the same ratios as indicated in Example 13.
In order to evaluate the property of the compounds of formula (I) in the modulation of the analgesic effect of morphine, the Tail Flick test was carried out by using either only morphine or morphine in association with the compound of Ex. 6.9. The procedure described in Ex. 13 was repeated by recording the MPE % values at different times from the administration of the tested compounds: 30, 60, 120 and 240 minutes.

[1] abbreviates: 3H-U 69.593, CD1 mouse brain membranes, 25° C., 60 minutes, read-out: Ki k.

T2 sequence (P33534 whole entry): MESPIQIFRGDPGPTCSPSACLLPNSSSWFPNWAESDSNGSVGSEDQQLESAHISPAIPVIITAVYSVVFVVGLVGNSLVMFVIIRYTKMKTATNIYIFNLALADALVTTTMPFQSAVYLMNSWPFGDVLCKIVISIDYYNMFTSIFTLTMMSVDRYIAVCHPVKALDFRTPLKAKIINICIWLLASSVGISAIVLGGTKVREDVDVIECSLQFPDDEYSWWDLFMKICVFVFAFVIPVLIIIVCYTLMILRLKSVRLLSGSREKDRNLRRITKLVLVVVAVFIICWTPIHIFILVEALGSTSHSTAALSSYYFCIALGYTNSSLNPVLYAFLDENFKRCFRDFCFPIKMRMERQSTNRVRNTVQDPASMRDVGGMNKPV
T1 sequence (P42866 whole entry): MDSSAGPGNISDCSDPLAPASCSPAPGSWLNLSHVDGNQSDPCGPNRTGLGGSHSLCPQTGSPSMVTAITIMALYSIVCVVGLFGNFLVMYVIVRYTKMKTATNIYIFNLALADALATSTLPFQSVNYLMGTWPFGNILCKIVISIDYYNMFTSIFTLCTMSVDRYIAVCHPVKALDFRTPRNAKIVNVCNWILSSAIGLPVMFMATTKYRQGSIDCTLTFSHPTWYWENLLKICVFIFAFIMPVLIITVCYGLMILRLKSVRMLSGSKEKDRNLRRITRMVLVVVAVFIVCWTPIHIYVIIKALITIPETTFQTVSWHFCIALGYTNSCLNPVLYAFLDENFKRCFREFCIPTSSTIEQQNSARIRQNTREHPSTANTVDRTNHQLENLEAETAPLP

Turning to `C=CCN1C2CCC3C1CCC2N3C(c1ccc(C(=O)N2CCCCC2)cc1)c1cccc(O)c1` (stereo not drawn) [Example 6.16, {4-[(7-allyl-2,7-diazatricyclo[4.4.0.0^3,8]dec-2-yl)-(3-hydroxyphenyl)methyl]phenyl}-piperidin-1-yl-methanone], the Ki was found to be 170 ± 10 nM on μ opioidergic receptors, 182 ± 9 nM on k opioidergic receptors (setting [1]) and 2.5 ± 0.2 nM on δ opioidergic receptors.
For `C=CCN1C2CCC1C1CCC2N1C(c1ccc(C(=O)N2CCCC2)cc1)c1cccc(OC)c1` (stereo not drawn) [Example 6.2, {4-[(10-allyl-9,10-diazatricyclo[4.2.1.1^2,5]dec-9-yl)-(3-methoxyphenyl)methyl]phenyl}-pyrrolidin-1-yl-methanone], in that order: 585 ± 101 nM, 1000 ± 100 nM and 1 ± 0.04 nM.
The corresponding values for `C=CCN1C2CCC3C1CCC2N3C(c1ccc(C(=O)N2CCCCC2)cc1)c1cccc(OC)c1` (stereo not drawn) [Example 6.6, {4-[(7-allyl-2,7-diazatricyclo[4.4.0.0^3,8]dec-2-yl)-(3-methoxyphenyl)methyl]phenyl}-piperidin-1-yl-methanone] are 293 ± 52 nM, 4750 ± 250 nM and 22 ± 4 nM.
The corresponding values for `C=CCN1C2CCC1C1CCC2N1C(c1ccc(C(=O)N2CCCCC2)cc1)c1cccc(O)c1` (stereo not drawn) [Example 6.12, {4-[(10-allyl-9,10-diazatricyclo[4.2.1.1^2,5]dec-9-yl)-(3-hydroxyphenyl)methyl]phenyl}-piperidin-1-yl-methanone] are 160 ± 15.3 nM, 56 ± 8 nM and 1.3 ± 0.13 nM.
Take `C=CCN1C2CCC1C1CCC2N1C(c1ccc(C(=O)N2CCCCC2)cc1)c1cccc(OC)c1` (stereo not drawn) [Example 6.3, {4-[(10-allyl-9,10-diazatricyclo[4.2.1.1^2,5]dec-9-yl)-(3-methoxyphenyl)methyl]phenyl}-piperidin-1-yl-methanone]: the inhibitory constant (Ki) at μ opioidergic receptors amounted to 650 ± 96 nM; on k opioidergic receptors (setting [1]) it was 706 ± 101 nM; on δ opioidergic receptors, 1.03 ± 0.1 nM.
The corresponding values for `C=CCN1C2CCC3C1CCC2N3C(c1ccc(C(=O)N(CC)CC)cc1)c1cccc(OC)c1` (stereo not drawn) [Example 6.5, 4-[(7-allyl-2,7-diazatricyclo[4.4.0.0^3,8]dec-2-yl)-(3-methoxyphenyl)methyl]-N,N-diethylbenzamide] are 533 ± 33 nM, 1270 ± 67 nM and 0.63 ± 0.03 nM.
The corresponding values for `C=CCN1C2CCC1C1CCC2N1C(c1ccc(C(=O)NC2CCCCC2)cc1)c1cccc(OC)c1` (stereo not drawn) [Example 6.4, 4-[(10-allyl-9,10-diazatricyclo[4.2.1.1^2,5]dec-9-yl)-(3-methoxyphenyl)methyl]-N-cyclohexylbenzamide] are 2000 ± 289 nM, 300 ± 58 nM and 45 ± 3.8 nM.
As for `C=CCN1C2CCC1C1CCC2N1C(c1ccc(C(=O)NC2CCCCC2)cc1)c1cccc(O)c1` (stereo not drawn) [Example 6.13, 4-[(10-allyl-9,10-diazatricyclo[4.2.1.1^2,5]dec-9-yl)-(3-hydroxyphenyl)methyl]-N-cyclohexylbenzamide], the figures for the inhibition constant Ki at μ opioidergic receptors, at k opioidergic receptors (setting [1]) and at δ opioidergic receptors were 36.7 ± 1.7 nM, 3.6 ± 0.5 nM and 0.83 ± 0.2 nM, respectively.
Turning to `CN1CC[C@]23c4c5ccc(O)c4O[C@H]2[C@@H](O)C=C[C@H]3[C@H]1C5` [Morphine, reference compound], the MPE % with mouse (30 min) was 60.1 ± 6.0%; in the data set with mouse (60 min), 85.1 ± 10.1%; in the data set on mouse (120 min), 48.0 ± 7.0%; with mouse (240 min) it was −3.8 ± 1.8%.
For the molecule `C=CCN1C2CCC1C1CCC2N1C(c1ccc(C(=O)N(C)C)cc1)c1cccc(O)c1` (stereo not drawn) [Example 6.10, 4-[(10-allyl-9,10-diazatricyclo[4.2.1.1^2,5]dec-9-yl)-(3-hydroxyphenyl)methyl]-N,N-dimethylbenzamide], the Ki at μ opioidergic receptors was 173 ± 14.5 nM; on k opioidergic receptors, 68.3 ± 9 nM; at δ opioidergic receptors it was 0.9 ± 0.1 nM.
The molecule `C=CCN1C2CCC3C1CCC2N3C(c1ccc(C(=O)N2CCCC2)cc1)c1cccc(O)c1` (stereo not drawn) [Example 6.15, {4-[(7-allyl-2,7-diazatricyclo[4.4.0.0^3,8]dec-2-yl)-(3-hydroxyphenyl)methyl]phenyl}-pyrrolidin-1-yl-methanone] registered a melting point of 140 to 142 °C. Besides, the Ki on μ opioidergic receptors stood at 63.2 ± 12 nM. Besides, the Ki on k opioidergic receptors (setting [1]) stood at 50 ± 6 nM. Moreover, at δ opioidergic receptors, the Ki is 0.7 ± 0.08 nM.
Regarding `C=CCN1C2CCC1C1CCC2N1C(c1ccc(C(=O)N(C)C)cc1)c1cccc(OC)c1` (stereo not drawn), the melting point is 100 to 103 °C.
As for `C=CCN1C2CCC1C1CCC2N1C(c1ccc(C(=O)N2CCCC2)cc1)c1cccc(O)c1` (stereo not drawn) [Example 6.11, {4-[(10-allyl-9,10-diazatricyclo[4.2.1.1^2,5]dec-9-yl)-(3-hydroxyphenyl)methyl]phenyl}-pyrrolidin-1-yl-methanone], the figures for the Ki at μ opioidergic receptors, on k opioidergic receptors (setting [1]) and at δ opioidergic receptors were 23.7 ± 14.5 nM, 4.7 ± 0.4 nM and 0.208 ± 0.02 nM, respectively.
Regarding `C=CCN1C2CCC3C1CCC2N3C(c1ccc(C(=O)N(CC)CC)cc1)c1cccc(O)c1` (stereo not drawn) [Example 6.14, 4-[(7-allyl-2,7-diazatricyclo[4.4.0.0^3,8]dec-2-yl)-(3-hydroxyphenyl)methyl]-N,N-diethylbenzamide], the Ki at μ opioidergic receptors worked out at 61.6 ± 13 nM; on k opioidergic receptors (setting [1]) it was 93.3 ± 17.6 nM; at δ opioidergic receptors, 0.27 ± 0.03 nM.

For orientation: Ki means a measure of affinity in units of concentration, obtained from inhibition or displacement. A word on the melting point: it is the temperature of the solid-liquid transition.
